Measured values from publication PMC12810351, “Structure-effect relationship of phenolic compounds on α-amylase inhibition studied by isothermal titration calorimetry” (Current Research in Food Science, 2025).
Like-named read-outs stand apart in the source and are kept apart here.

Tests used:
[1] = target: α-amylase; parameters: key to Kic [μM] / Kiu [μM] / IC50 [μM]: “–” no inhibition; conditions: substrate starch, PAHBAH UV/Vis, cited from earlier work
[2] = target: T1, porcine pancreatic α-amylase (Sus scrofa, UniProt P00690); experiment: starch hydrolysis by α-amylase monitored by isothermal titration calorimetry (ITC); assay type: biochemical; conditions: for inhibition mechanism suggested by Kic/Kiu ratios: polyphenol standards; for remaining activity at 25 µM: 25 μM EGCG
T1 sequence (P00690 16-511): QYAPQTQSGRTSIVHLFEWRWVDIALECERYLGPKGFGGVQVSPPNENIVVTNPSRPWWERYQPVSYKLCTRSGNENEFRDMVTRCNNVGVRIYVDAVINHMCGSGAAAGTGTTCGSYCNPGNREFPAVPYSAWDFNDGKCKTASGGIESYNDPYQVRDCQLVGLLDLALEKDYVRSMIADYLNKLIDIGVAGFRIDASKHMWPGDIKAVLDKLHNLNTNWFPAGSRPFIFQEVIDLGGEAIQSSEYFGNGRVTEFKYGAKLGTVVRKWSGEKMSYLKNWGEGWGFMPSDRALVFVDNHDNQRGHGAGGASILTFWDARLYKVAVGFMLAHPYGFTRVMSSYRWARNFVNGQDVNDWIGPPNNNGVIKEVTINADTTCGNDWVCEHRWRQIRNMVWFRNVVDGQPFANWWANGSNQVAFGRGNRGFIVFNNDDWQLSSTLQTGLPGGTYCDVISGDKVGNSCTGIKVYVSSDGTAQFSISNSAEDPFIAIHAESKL
Protocol: The amylase stock solution was diluted each day and stored during the day at 4 °C.
The experiments were conducted using an Affinity ITC LV instrument with a cell volume of 182 μL (TA Instruments, Eschborn, Germany). […] These controls were conducted to determine the optimal injection volume to achieve maximal velocity (vmax) (S11). […] Enzyme kinetic constants were determined at 310 K.
The heat released during starch conversion was continuously monitored, with calculations performed using Microsoft Excel® software. The enzymatic rate (v) is directly proportional to the measured thermal power (eq (1)).(1) v=dP/dt=1/Vcell·ΔRHapp·dQ/dt
The reaction enthalpy ( ΔRHapp ) is determined by integrating the heat peak over its entire duration, divided by the number of substrate molecules converted:(2) ΔRHapp=∫t=0∞dQ/dtdt/nS
(dQ/dt)max [%], ΔRHapp [%] und vmax [%] are calculated in relation to daily control.
The substrate concentration at time t ([S]t) is calculated according to eq (3).(3) [S]t=∫t∞dQ/dtdt/∫0∞dQ/dtdt·[S]t=0
Therefore, the thermogram contains all the required data for calculating inhibition constants. The maximal conversion rate vmax and the Michaelis-Menten constant Km are determined from control experiments conducted in the absence of an inhibitor. In the presence of an inhibitor [I] the apparent values of vmaxapp and Kmapp are obtained. Competitive inhibition (Kic, eq (5)) is due to the formation of an enzyme-inhibitor complex (EI), whereas uncompetitive inhibition (Kiu, eq (5)) occurs when an inhibitor binds to a […]:(5) Kic=vmaxapp/Kmapp·[I]/(vmax/Km)−(vmaxapp/Kmapp)Kiu=vmaxapp·[I]/vmax−vmaxapp
The IC50 value, a key pharmacological metric, is used to compare the potency of inhibitors. […] The conversion rate (v0) was calculated from the thermogram according to eq (1), and subsequently plotted against the […]

[3] = target: α-amylase; conditions: substrate starch, DNS UV/Vis, cited from earlier work
[4] = target: α-amylase; parameters: method as in Kaeswurm et al. (2019); conditions: substrate GalG2CNP, CNP UV/Vis, ref Kaeswurm et al. (2019), cited from earlier work
[5] = target: α-amylase; parameters: method as in Narita and Inouye (2011); conditions: substrate G2-pNP, pNP UV/Vis, ref Narita and Inouye (2011), cited from earlier work
[6] = target: α-amylase; parameters: method as in Nyambe-Silavwe et al. (2015); conditions: substrate amylose, amylopectin, DNS UV/Vis; ref Nyambe-Silavwe et al. (2015); cited from earlier work
[7] = target: α-amylase; parameters: method as in Zheng et al. (2020); conditions: substrate starch, D-glucose assay UV/Vis, ref Zheng et al. (2020), cited from earlier work
[8] = 100 μM polyphenol, 26 nM α-amylase, starch, 310 K, relative to control without inhibitor, read-out: (dQ/dt)max [%]
[9] = 100 μM polyphenol, relative to control, read-out: vmax [%]
[10] = calculated based on the mass concentration
[11] = calculated based on the mass concentration, read-out: Kic [g/L] (converted)
[12] = calculated based on the mass concentration, read-out: Kiu [g/L] (converted)
[13] = competitive inhibition constant, substrate starch, ITC, 100 μM polyphenol (EGCG 25 μM), read-out: Kic
[14] = substrate starch, ITC, calculated by eq (6), substrate concentration of 1 M (IC50 equivalent to Kiu), read-out: IC50*
[15] = uncompetitive inhibition constant, substrate starch, ITC, 100 μM polyphenol (EGCG 25 μM), read-out: Kiu
[16] = calculated based on the mass concentration, read-out: IC50 [g/L] (converted)

Compound	remaining activity at 100 µM [2, 8] [%]	remaining activity at 100 µM [2, 9] [%]	α (Kic/Kiu) [2, 10]	Ki [2, 11] [µM]	Ki [2, 12] [µM]	Ki [2, 13] [µM]	inhibition mechanism suggested by Kic/Kiu ratios [2]	inhibition type ([2]; substrate starch, ITC)	IC50 [2, 14] [µM]	Ki [2, 15] [µM]	IC50 [2, 16] [µM]	IC50 [4] [µM]	Ki ([4]; read-out: Kic) [µM]	Ki ([4]; read-out: Kiu) [µM]	IC50 [5] [µM]	Ki ([5]; read-out: Kic) [µM]	Ki ([5]; read-out: Kiu) [µM]	other results
OC[C@H]1O[C@@H](Oc2cc3c(O)cc(O)cc3[o+]c2-c2ccc(O)c(O)c2)[C@H](O)[C@@H](O)[C@@H]1O [CYD-3-glc, cyanidin-3-O-glucoside]	74 ± 10	65 ± 4	0.71 ± 0.05	156	223	143 ± 30	preferentially bind to the enzyme	mixed	200 ± 34	201 ± 34								IC50 ([1]; ref Le et al. (2024)): 340 µM; Ki ([1]; ref Le et al. (2024), read-out: Kic): 390 µM; Ki ([1]; ref Le et al. (2024), read-out: Kiu): 210 µM; IC50 ([3]; ref Akkarachiyasit et al., (2010)): 300 µM; IC50 ([3]; ref Sui et al. (2016)): 240 µM; Ki ([3]; ref Sui et al. (2016), read-out: Kic): 140 µM
O=C(/C=C/c1ccc(O)c(O)c1)O[C@@H]1C[C@](O)(C(=O)O)C[C@@H](O)[C@H]1O [CA, Chlorogenic acid]		72 ± 6	0.70 ± 0.03	198	282	195 ± 68	preferentially bind to the enzyme	mixed	278 ± 100	279 ± 100	198	413	406	413	400	1120	270	remaining activity at 100 µM ([2]; read-out: (dQ/dt)max [%]): 77 ± 5%; IC50 ([3]; ref Souza Schmidt Gonçalves et al. (2010)): 3.9 µM
O=C(O[C@@H]1Cc2c(O)cc(O)cc2O[C@@H]1c1cc(O)c(O)c(O)c1)c1cc(O)c(O)c(O)c1 [EGCG, epigallocatechin gallate]			0.73 ± 0.01	21.8	21.8	19 ± 2	preferentially bind to the enzyme	mixed	25 ± 2	26 ± 2		58	124	58				remaining activity at 25 µM ([2]; relative to control, read-out: (dQ/dt)max [%]): 38 ± 4%; remaining activity at 25 µM ([2]; relative to control, read-out: vmax [%]): 49 ± 2%; reversibility of inhibition (from ΔRHapp) ([2]; 100 μM polyphenol (EGCG 25 μM)): irreversible aggregation; IC50 [6]: 5.3 to 60 µM
COc1cc(/C=C/C(=O)O)ccc1O [FA, ferulic acid]	94 ± 12	95 ± 3	0.67 ± 0.30	1240	2370	1240 ± 235		mixed	2350 ± 1470	2360 ± 1480					5450	11200	4870	IC50 [7]: 3200 µM; Ki ([7]; read-out: Kic): 3400 µM; Ki ([7]; read-out: Kiu): 3630 µM; IC50 ([3]; ref Aleixandre et al. (2022)): > 5150 µM
O=C(CCc1ccc(O)cc1)c1c(O)cc(O)cc1O[C@@H]1O[C@H](CO)[C@@H](O)[C@H](O)[C@H]1O [PHL, phlorizin]	83 ± 4	89 ± 7	0.76 ± 0.08	412	573	418 ± 127		mixed	572 ± 145	573 ± 145	504	391	151	391				IC50 [μM] ([1]; ref Li et al. (2019)): –; Kic [μM] ([1]; ref Li et al. (2019)): –; Kiu [μM] ([1]; ref Li et al. (2019)): –
